Assay results as given in patent US8415351B2 (priority 2007, dated 2013).
Counter-ions that a name gives are not always drawn.

Experiments:
[1] = target: T1, HCV polymerase 1A (Δ21 NS5B, H77) (Hepatitis C virus genotype 1a, UniProt P27958); test: biochemical; conditions: IC50 1a
T1 construct: 20 to 50 nM Δ21 NS5B
Method in brief: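 Radiometric assay with Δ21 NS5B (H77): 20 μM CTP, 20 μM ATP, 1 μM ^3H-UTP, 5 nM template RNA, 2–4 h at room temperature. RNA precipitated with spermine, filter-captured and counted. IC50 from non-linear fit of retained cpm vs inhibitor concentration (tight-binding equation).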

[2] = target: T2, HCV polymerase 1B (Δ21 NS5B, BK) (Hepatitis C virus genotype 1b, UniProt P26663); test: biochemical
T2 construct: 20 to 50 nM Δ21 NS5B
Method in brief: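 Δ21 NS5B (genotype 1b, BK […]) preincubated 15 min RT with inhibitor, 2 mM MnCl2, pH 7.4, 60–125 μM GTP; started with 20 μM CTP/ATP, 1 μM 3H-UTP, 5 nM template RNA, run 2–4 h RT. Spermine-precipitated RNA filter-captured, scintillation counted; IC50 from tight-binding (Morrison) fit.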

[3] = tested on: genotype 1b-Con1 subgenomic replicon cell line; test: microbe, parasite or virus in culture; format: cell-based, HCV; conditions: Hepatitis C virus, read-out: EC50 1b

T2 sequence (P26663 2420-2989, stated change not applied): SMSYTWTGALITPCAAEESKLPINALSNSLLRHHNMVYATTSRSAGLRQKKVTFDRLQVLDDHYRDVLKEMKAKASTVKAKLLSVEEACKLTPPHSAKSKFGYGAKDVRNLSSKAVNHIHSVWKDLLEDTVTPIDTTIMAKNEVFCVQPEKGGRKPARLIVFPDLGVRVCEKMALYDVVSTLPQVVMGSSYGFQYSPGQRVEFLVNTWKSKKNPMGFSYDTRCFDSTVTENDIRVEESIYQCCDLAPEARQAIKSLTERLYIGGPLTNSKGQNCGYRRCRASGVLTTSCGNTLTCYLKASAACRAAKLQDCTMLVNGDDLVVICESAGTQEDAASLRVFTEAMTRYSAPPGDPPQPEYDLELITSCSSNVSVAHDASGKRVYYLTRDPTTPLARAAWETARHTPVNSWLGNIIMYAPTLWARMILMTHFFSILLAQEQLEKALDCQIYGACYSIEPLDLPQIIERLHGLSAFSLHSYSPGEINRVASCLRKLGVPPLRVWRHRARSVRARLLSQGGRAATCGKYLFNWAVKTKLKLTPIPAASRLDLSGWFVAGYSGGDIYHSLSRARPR
T1 sequence (P27958 2421-2990, stated change not applied): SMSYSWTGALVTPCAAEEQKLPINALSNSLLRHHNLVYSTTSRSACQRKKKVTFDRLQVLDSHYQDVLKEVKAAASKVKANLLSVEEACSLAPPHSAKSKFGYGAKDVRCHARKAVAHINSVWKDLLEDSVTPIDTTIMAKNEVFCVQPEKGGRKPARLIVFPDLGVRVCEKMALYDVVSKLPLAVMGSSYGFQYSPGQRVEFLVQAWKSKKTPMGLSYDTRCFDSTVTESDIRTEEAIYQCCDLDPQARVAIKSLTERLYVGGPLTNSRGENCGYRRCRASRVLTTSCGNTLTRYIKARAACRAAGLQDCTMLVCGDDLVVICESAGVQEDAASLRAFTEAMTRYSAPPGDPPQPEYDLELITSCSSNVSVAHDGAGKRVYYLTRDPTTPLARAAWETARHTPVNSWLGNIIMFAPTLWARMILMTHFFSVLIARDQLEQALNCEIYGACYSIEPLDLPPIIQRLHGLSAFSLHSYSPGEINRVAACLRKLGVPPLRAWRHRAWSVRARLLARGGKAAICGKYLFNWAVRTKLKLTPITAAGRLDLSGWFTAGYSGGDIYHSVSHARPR

Row | SMILES | IC50 [1] | IC50 [2] | EC50 [3]
1 | CC(C)(C)c1cc(N2CCC(=O)NC2=O)cc(C(=O)Nc2ccc(NS(=O)(=O)CCN3CCOCC3)cc2)c1O [IA-L3-1.14, 3-tert-butyl-5-(2,4-dioxotetrahydropyrimidin-1(2H)-yl)-2-hydroxy-N-(4-(2-morpholinoethylsulfonamido)phenyl)benzamide] | 10 to 100 nM | < 10 nM | 100 to 1000 nM
2 | COCCS(=O)(=O)Nc1ccc(NC(=O)c2cc(N3CCC(=O)NC3=O)cc(C(C)(C)C)c2OC)cc1 [IA-L3-1.54, 3-tert-butyl-5-(2,4-dioxotetrahydropyrimidin-1(2H)-yl)-2-methoxy-N-(4-(2-methoxyethylsulfonamido)phenyl)benzamide] | 10 to 100 nM | 100 to 1000 nM | 10 to 100 nM
3 | COc1c(C(=O)Nc2ccc(NS(=O)(=O)CCN(CCO)CCO)cc2)cc(N2CCC(=O)NC2=O)cc1C(C)(C)C [IA-L3-1.56, N-(4-(2-(bis(2-hydroxyethyl)amino)ethylsulfonamido)phenyl)-3-tert-butyl-5-(2,4-dioxo-tetrahydropyrimidin-1(2H)-yl)-2-methoxybenzamide] | 100 to 1000 nM | 100 to 1000 nM | 100 to 1000 nM
4 | COc1c(C(=O)Nc2ccc(NS(=O)(=O)CCN3CCOCC3)cc2)cc(N2CCC(=O)NC2=O)cc1C(C)(C)C [IA-L3-1.58, 3-tert-butyl-5-(2,4-dioxotetrahydropyrimidin-1(2H)-yl)-2-methoxy-N-(4-(2-morpholinoethylsulfonamido)phenyl)benzamide] | 100 to 1000 nM | 100 to 1000 nM | 100 to 1000 nM
5 | COc1c(C(=O)Nc2ccc(NS(C)(=O)=O)c([N+](=O)[O-])c2)cc(N2CCC(=O)NC2=O)cc1C(C)(C)C [IA-L3-1.87, 3-tert-butyl-5-(2,4-dioxotetrahydropyrimidin-1(2H)-yl)-2-methoxy-N-(4-(methylsulfonamido)-3-nitrophenyl)benzamide] | > 1000 nM | 100 to 1000 nM | > 1000 nM
6 | COc1c(C(=O)Nc2ccc(NS(C)(=O)=O)nc2)cc(N2CCC(=O)NC2=O)cc1C(C)(C)C [IA-L3-1.99, 3-tert-butyl-5-(2,4-dioxotetrahydropyrimidin-1(2H)-yl)-2-methoxy-N-(6-(methylsulfonamido)pyridin-3-yl)benzamide] | 10 to 100 nM | 100 to 1000 nM | 100 to 1000 nM
7 | COc1c(C(=O)Nc2ccc(N)nc2)cc(N2CCC(=O)NC2=O)cc1C(C)(C)C [IA-L3-1.100, N-(6-aminopyridin-3-yl)-3-tert-butyl-5-(2,4-dioxotetrahydropyrimidin-1(2H)-yl)-2-methoxy benzamide] | > 1000 nM | 100 to 1000 nM | > 1000 nM
8 | COc1c(C(=O)Nc2ccc(NS(C)(=O)=O)cn2)cc(N2CCC(=O)NC2=O)cc1C(C)(C)C [IA-L3-1.102, 3-tert-butyl-5-(2,4-dioxotetrahydropyrimidin-1(2H)-yl)-2-methoxy-N-(5-(methylsulfonamido)pyridin-2-yl)benzamide] | 100 to 1000 nM | 100 to 1000 nM | 100 to 1000 nM
9 | COc1c(C(=O)Nc2ccc(NS(C)(=O)=O)cc2)cc(N2CCC(=O)NC2=O)cc1C(C)C [IA-L3-1.111, 5-(2,4-dioxotetrahydropyrimidin-1(2H)-yl)-3-isopropyl-2-methoxy-N-(4-(methylsulfonamido)phenyl)benzamide] | 10 to 100 nM | 100 to 1000 nM | 100 to 1000 nM
10 | COc1c(C(=O)Nc2ccc(NS(=O)(=O)CCO)cc2)cc(N2CCC(=O)NC2=O)cc1C(C)(C)C [IA-L3-1.122, 3-tert-butyl-5-(2,4-dioxotetrahydropyrimidin-1(2H)-yl)-N-(4-(2-hydroxyethylsulfonamido)phenyl)-2-methoxybenzamide] | 10 to 100 nM | 10 to 100 nM | 10 to 100 nM
11 | COc1c(NC(=O)c2ccc(NS(C)(=O)=O)cc2)cc(N2CCC(=O)NC2=O)cc1C(C)(C)C [IA-L4-1.9, N-(3-tert-butyl-5-(2,4-dioxotetrahydropyrimidin-1(2H)-yl)-2-methoxyphenyl)-4-(methylsulfonamido)benzamide] | 10 to 100 nM | 10 to 100 nM | 10 to 100 nM
12 | CC(C)(C)c1cc(N2CCC(=O)NC2=O)cc(CN2CCC[C@@H](O)C2)c1O [IA-L5-1-1.6, 1-[3-tert-butyl-4-hydroxy-5-((R)-3-hydroxy-piperidin-1-ylmethyl)-phenyl]-dihydro-pyrimidine-2,4-dione; compound with trifluoroacetic acid] | > 1000 nM | > 1000 nM | 
13 | CCN(CC)C(=O)C1CCCN(Cc2cc(N3CCC(=O)NC3=O)cc(C(C)(C)C)c2O)C1 (centres unmarked) [IA-L5-1-1.7, 1-[3-tert-butyl-5-(2,4-dioxo-tetrahydro-pyrimidin-1-yl)-2-hydroxy-benzyl]-piperidine-3-carboxylic acid diethylamide, trifluoroacetic acid salt] | > 1000 nM | > 1000 nM | 
14 | CC(C)(C)c1cc(N2CCC(=O)NC2=O)cc(CN2CCCC(C(N)=O)C2)c1O (centres unmarked) [IA-L5-1-1.8, 1-[3-tert-butyl-5-(2,4-dioxo-tetrahydro-pyrimidin-1-yl)-2-hydroxy-benzyl]-piperidine-3-carboxylic acid amide, trifluoroacetic acid salt] | > 1000 nM | > 1000 nM | 
15 | CC(C)(C)OC(=O)N1CCN(Cc2cc(N3CCC(=O)NC3=O)cc(C(C)(C)C)c2O)CC1 [IA-L5-1-1.10, 4-[3-tert-butyl-5-(2,4-dioxo-tetrahydro-pyrimidin-1-yl)-2-hydroxy-benzyl]-piperazine-1-carboxylic acid tert-butyl ester] | > 1000 nM | > 1000 nM | 
16 | CC(C)(C)c1cc(N2CCC(=O)NC2=O)cc(CN2CCC(NS(C)(=O)=O)C2)c1O (centres unmarked) [IA-L5-1-1.11, N-{1-[3-tert-butyl-5-(2,4-dioxo-tetrahydro-pyrimidin-1-yl)-2-hydroxy-benzyl]-pyrrolidin-3-yl}-methanesulfonamide] | > 1000 nM | > 1000 nM | 
17 | CC(C)(C)OC(=O)NC1CCN(Cc2cc(N3CCC(=O)NC3=O)cc(C(C)(C)C)c2O)C1 (centres unmarked) [IA-L5-1-1.12, {1-[3-tert-butyl-5-(2,4-dioxo-tetrahydro-pyrimidin-1-yl)-2-hydroxy-benzyl]-pyrrolidin-3-yl}-carbamic acid tert-butyl ester] | > 1000 nM | > 1000 nM | 
18 | CC1CN(Cc2cc(N3CCC(=O)NC3=O)cc(C(C)(C)C)c2O)CC(C)O1 (centres unmarked) [IA-L5-1-1.13, 1-(3-tert-butyl-5-((2,6-dimethylmorpholino)methyl)-4-hydroxyphenyl)dihydro pyrimidine-2,4(1H,3H)-dione 2,2,2-trifluoroacetate] | > 1000 nM | > 1000 nM | 
19 | CC(C)(C)c1cc(N2CCC(=O)NC2=O)cc(CN2CCOCC2)c1O [IA-L5-1-1.14, 1-(3-tert-butyl-4-hydroxy-5-(morpholinomethyl)phenyl)dihydropyrimidine-2,4(1H,3H)-dione 2,2,2-trifluoroacetate] | > 1000 nM | > 1000 nM | 
20 | COc1c(Cc2cn(C)c3ccccc23)cc(N2CCC(=O)NC2=O)cc1C(C)(C)C [IA-L5-1-2.1, 1-(3-tert-butyl-4-methoxy-5-((1-methyl-1H-indol-3-yl)methyl)phenyl)dihydropyrimidine-2,4(1H,3H)-dione] | > 1000 nM | > 1000 nM | 
21 | CC(C)(C)c1cc(N2CCC(=O)NC2=O)cc(CN2CCCc3cc(NS(C)(=O)=O)ccc32)c1O [IA-L5-1-2.2, N-(1-(3-tert-butyl-5-(2,4-dioxotetrahydropyrimidin-1(2H)-yl)-2-hydroxybenzyl)-1,2,3,4-tetrahydroquinolin-6-yl)methanesulfonamide] | > 1000 nM | > 1000 nM | 
22 | CCN(Cc1cc(N2CCC(=O)NC2=O)cc(C(C)(C)C)c1O)C1CCCCC1 [IA-L9-1.1, 1-(3-tert-butyl-5-((cyclohexyl(ethyl)amino)methyl)-4-hydroxyphenyl)dihydropyrimidine-2,4(1H,3H)-dione 2,2,2-trifluoroacetate] | > 1000 nM | > 1000 nM | 
23 | CN(Cc1cc(N2CCC(=O)NC2=O)cc(C(C)(C)C)c1O)C1CCCCC1 [IA-L9-1.2, 1-(3-tert-butyl-5-((cyclohexyl(methyl)amino)methyl)-4-hydroxyphenyl)dihydro pyrimidine-2,4(1H,3H)-dione 2,2,2-trifluoroacetate] | > 1000 nM | > 1000 nM | 
24 | CC(C)(C)c1cc(N2CCC(=O)NC2=O)cc(CNc2ccc(NS(C)(=O)=O)cc2)c1O [IA-L9-1.3, N-(4-(3-tert-butyl-5-(2,4-dioxotetrahydropyrimidin-1(2H)-yl)-2-hydroxybenzylamino)phenyl)methanesulfonamide] | > 1000 nM | > 1000 nM | 
25 | COc1c(C#Cc2ccc(NS(C)(=O)=O)cc2Cl)cc(-n2ccc(=O)[nH]c2=O)cc1C(C)(C)C [IB-L2-1.2, N-(4-((3-tert-butyl-5-(2,4-dioxo-3,4-dihydropyrimidin-1(2H)-yl)-2-methoxyphenyl)ethynyl)-3-chlorophenyl)methanesulfonamide] | < 10 nM | 10 to 100 nM | < 10 nM
26 | COc1c(C#Cc2cc(F)c(NS(C)(=O)=O)c(F)c2)cc(-n2ccc(=O)[nH]c2=O)cc1C(C)(C)C [IB-L2-1.4, N-(4-((3-tert-butyl-5-(2,4-dioxo-3,4-dihydropyrimidin-1(2H)-yl)-2-methoxyphenyl)ethynyl)-2,6-difluorophenyl)methanesulfonamide] | 10 to 100 nM | 10 to 100 nM | 100 to 1000 nM
